From patent US10966426B2, “Herbicidal compositions comprising phenylpyrimidines” (BASF SE, priority 2016, dated 2021)
Where “and” joins values, the source holds several entries; their conditions need not be identical. Equal entries are not always repeated.

What was measured:
Type in all cases: in vivo
[1] = tested on: Lolium multiflorum; assay: greenhouse post-emergence treatment, LOLMU; settings: LOLMU
How it was run: (§1)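 Pot trial in loamy sand with about 3.0% humus; plants sown in place or transplanted as seedlings a few days before treatment, kept at 10-25° C or 20-35° C by species, water as solvent. Damage scored 0 (none) to 100 (full destruction) over 2 to 4 weeks; combination expectation by Colby, E=X+Y−(X·Y/100).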

[2] = tested on: Polygonum convolvulus; assay: greenhouse post-emergence treatment, POLCO; settings: POLCO, solo Ex. 5 62.5 gai/ha
How it was run: (§2)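 Visual herbicidal effect (0–100) recorded over a 2 to 4 week test period after foliar treatment at plant heights of 3 to 15 cm. Expected combination effects derived by the Colby formula from single-component effects X and Y.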

[3] = tested on: Setaria viridis; assay: greenhouse post-emergence treatment, SETVI; settings: SETVI
How it was run: as §1

[4] = tested on: Echinocloa crus-galli; assay: greenhouse post-emergence treatment, ECHCG; settings: ECHCG
How it was run: as §2

[5] = tested on: Digitaria sanguinalis; assay: greenhouse post-emergence treatment, DIGSA; settings: DIGSA
How it was run: as §1

[6] = tested on: Bromus sterilis; assay: greenhouse post-emergence treatment, BROST
How it was run: as §1

[7] = tested on: Brachiaria decumbens; assay: greenhouse post-emergence treatment, BRADC; settings: BRADC
How it was run: (§3)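 Foliar application to greenhouse-grown plants 3–15 cm tall in humus-containing loamy sand; response assessed on a 0–100 scale after 2–4 weeks, with Colby's E=X+Y−(X·Y/100) as the additive expectation.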

[8] = tested on: Ambrosia elatior; assay: greenhouse post-emergence treatment, AMBEL; settings: 20 DAT, AMBEL
How it was run: as §3

[9] = solo Ex. 5 500 gai/ha, 20 DAT, 2nd series of rows
[10] = Table X8, 20 DAT, solo Ex. 5 125 gai/ha
[11] = Table X12, 20 DAT, solo Ex. 5 125 gai/ha
[12] = Table X8, 20 DAT, solo Ex. 5 250 gai/ha

For `O=C(O)c1nc(C2CC2)ncc1-c1ccccc1Cl` [Ex. 5], the “% activity” value ([1]; solo Ex. 5 250 gai/ha, 21 DAT) was 80%, the “% activity” value ([1]; solo Ex. 5 500 gai/ha, 20 DAT) was 85% and the “% activity” value [1, 9] was 85%. The “% activity” value [1, 10] was 85%, the “% activity” value [1, 11] was 85% and the “% activity” value ([1]; solo, 62.5 gai/ha, 20 DAT) was 75%. For the same compound, the “% activity” value ([1]; solo, 125 gai/ha, 20 DAT) was 80% and 50%, the “% activity” value ([1]; solo, 250 gai/ha, 20 DAT) was 80% and the “% activity” value ([2]; 20 DAT) was 60%. The “% activity” value ([2]; 21 DAT) was 90%, the “% activity, solo application” value ([3]; 62.5 gai/ha, 20 DAT, Table X3) was 35% and the “% activity, solo application” value ([3]; 250 gai/ha, 20 DAT, Table X3) was 60%. For the same compound, the “% activity, solo application” value ([3]; 250 gai/ha, 20 DAT, Table X4) was 50%, the “% activity, solo application” value ([3]; 250 gai/ha, 20 DAT, Table X7) was 60% and the “% activity” value ([3]; Ex. 5 solo, 62.5 gai/ha, 20 DAT) was 55%. The “% activity” value ([3]; 20 DAT, solo Ex. 5 62.5 gai/ha) was 30%, the “% activity” value ([3]; 20 DAT, solo Ex. 5 125 gai/ha) was 40% and the “% activity” value ([3]; 21 DAT, solo Ex. 5 125 gai/ha) was 70%. For the same compound, the “% activity” value ([3]; solo Ex. 5 62.5 gai/ha, 20 DAT) was 35% and 30% and 48%, the “% activity” value ([3]; solo Ex. 5 62.5 gai/ha, 21 DAT) was 35% and the “% activity” value ([3]; solo Ex. 5 250 gai/ha, 20 DAT) was 65%. The “% activity” value [3, 10] was 30%, the “% activity” value [3, 12] was 30% and the “% activity” value ([3]; solo, 62.5 gai/ha, 20 DAT) was 20% and 35%. The “% activity” value ([3]; solo, 125 gai/ha, 20 DAT) was 40%, the “% activity” value ([3]; solo, 250 gai/ha, 20 DAT) was 50% and the “% activity, solo application” value ([4]; 62.5 gai/ha, 20 DAT, Table X3) was 65%. The “% activity” value ([4]; solo Ex. 5 125 gai/ha, 21 DAT) was 65%, the “% activity” value ([4]; solo Ex. 5 250 gai/ha, 21 DAT) was 65% and the “% activity” value [4, 11] was 65%. The “% activity, solo application” value ([5]; 62.5 gai/ha, 20 DAT, Table X3) was 30%, the “% activity, solo application” value ([5]; 125 gai/ha, 20 DAT, Table X4) was 50% and the “% activity, solo application” value ([5]; 125 gai/ha, 20 DAT, Table X5) was 65%. The “% activity, solo application” value ([5]; 250 gai/ha, 20 DAT, Table X4) was 70%, the “% activity, solo application” value ([5]; 250 gai/ha, 20 DAT, Table X5) was 70% and the “% activity” value ([5]; 21 DAT, solo Ex. 5 125 gai/ha) was 60%. For the same compound, the “% activity” value ([5]; 21 DAT, solo Ex. 5 250 gai/ha) was 80%, the “% activity” value ([5]; solo Ex. 5 62.5 gai/ha, 20 DAT) was 35% and the “% activity” value ([5]; solo Ex. 5 125 gai/ha, 21 DAT) was 45%. The “% activity” value ([5]; solo Ex. 5 250 gai/ha, 21 DAT) was 65%, the “% activity” value [5, 9] was 75% and the “% activity” value ([5]; Ex. 5 solo, 62.5 gai/ha, 21 DAT) was 35%. For the same compound, the “% activity” value [5, 12] was 65%, the “% activity” value ([5]; solo, 62.5 gai/ha, 20 DAT) was 35% and the “% activity” value ([5]; solo, 125 gai/ha, 20 DAT) was 50%. For the same compound, the “% activity, solo application” value ([6]; 250 gai/ha, 20 DAT, BROST, Table X3) was 80%, the “% activity” value ([6]; BROST, 20 DAT, solo Ex. 5 62.5 gai/ha) was 35% and the “% activity” value ([6]; BROST, 20 DAT, solo Ex. 5 250 gai/ha) was 80%. For the same compound, the “% activity” value ([6]; BROST, solo Ex. 5 62.5 gai/ha, 20 DAT) was 30% and 53%, the “% activity” value ([6]; BROST, solo Ex. 5 125 gai/ha, 20 DAT) was 65% and 73% and the “% activity” value ([6]; BROST, solo Ex. 5 250 gai/ha, 20 DAT) was 70% and 85%. The “% activity” value ([6]; BROST, solo Ex. 5 500 gai/ha, 20 DAT) was 90%, the “% activity” value ([6]; solo, BROST, 125 gai/ha, 20 DAT) was 65% and the “% activity” value ([6]; solo, BROST, 250 gai/ha, 20 DAT) was 70% and 80%. The “% activity, solo application” value ([7]; 125 gai/ha, 20 DAT, Table X5) was 50%, the “% activity, solo application” value ([7]; 125 gai/ha, 20 DAT, Table X7) was 65% and the “% activity, solo application” value ([7]; 250 gai/ha, 20 DAT, Table X3) was 60%. For the same compound, the “% activity” value ([7]; 20 DAT, solo Ex. 5 62.5 gai/ha) was 35%, the “% activity” value ([7]; 20 DAT, solo Ex. 5 125 gai/ha) was 40% and the “% activity” value ([7]; 20 DAT, solo Ex. 5 125 gai/ha (Table X66)) was 40%. For the same compound, the “% activity” value ([7]; 20 DAT, solo Ex. 5 250 gai/ha) was 60%, the “% activity” value ([7]; 21 DAT, solo Ex. 5 125 gai/ha) was 60% and the “% activity” value ([7]; 21 DAT, solo Ex. 5 250 gai/ha) was 70%. For the same compound, the “% activity” value ([7]; solo Ex. 5 62.5 gai/ha, 20 DAT) was 30% and 45%, the “% activity” value ([7]; solo Ex. 5 125 gai/ha, 20 DAT) was 50% and the “% activity” value ([7]; solo Ex. 5 250 gai/ha, 20 DAT) was 60%. For the same compound, the “% activity” value ([7]; solo, 62.5 gai/ha, 20 DAT) was 45%, the “% activity” value ([7]; solo, 250 gai/ha, 20 DAT) was 60% and the “% activity, solo application” value ([8]; 125 gai/ha, Table X5) was 80%. The “% activity” value ([8]; solo Ex. 5 62.5 gai/ha) was 80%, the “% activity” value ([8]; solo Ex. 5 125 gai/ha) was 80% and the “% activity” value ([8]; solo, 62.5 gai/ha) was 85%.
